Where no end group is shown, it is not given here.
Experiments:
[1] = molecular target: T1, GnRH receptor (Rattus norvegicus, UniProt P30969); experiment: Displacement of radiolabelled monoiodinated-GnRH from rat pituitary membranes (Example 24); assay type: binding; conditions: molar basis over a 1000-fold concentration range (n=6); native GnRH = 100%
T1 construct: specifically displaced radiolabelled monoiodinated-GnRH from rat pituitary membranes; from tissue; host or cells: rat pituitary membranes
T1 sequence (P30969 1-327): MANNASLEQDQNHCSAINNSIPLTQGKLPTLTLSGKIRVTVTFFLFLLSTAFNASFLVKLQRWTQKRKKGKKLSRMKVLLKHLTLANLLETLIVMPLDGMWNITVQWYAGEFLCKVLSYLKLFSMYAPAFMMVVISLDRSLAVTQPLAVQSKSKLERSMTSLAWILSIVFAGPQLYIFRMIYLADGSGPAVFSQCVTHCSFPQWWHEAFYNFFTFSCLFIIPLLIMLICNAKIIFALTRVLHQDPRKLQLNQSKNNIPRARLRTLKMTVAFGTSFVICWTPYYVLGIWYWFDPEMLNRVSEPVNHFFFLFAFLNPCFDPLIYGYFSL
Excerpt: We also synthesized D-Lys^6GnRH (SEQ. ID NO. 13), so that hecate could be conjugated to the D-Lys^6, a position that could minimize interference with binding of the GnRH domain to the GnRH receptor. These synthetic peptides specifically displaced radiolabelled monoiodinated-GnRH from rat pituitary membranes.

[2] = system: sexually mature female rabbits; experiment: Sexually mature female rabbits, intravenous GnRH-hecate, GnRH challenge day 6, sacrifice day 7 (Examples 47-48); assay type: in vivo, rabbit
Procedure: Nine sexually mature female rabbits were injected intravenously with saline containing 0 mg (n=4) (Treatment 47) or 10 mg GnRH-hecate (n=5) (Treatment 48). Rabbits were injected intramuscularly with GnRH on day 6 post-treatment. Blood samples were collected for radioimmunoassay of LH and FSH as described above, and the animals were sacrificed on day 7 post-treatment. […] Again, the effects were more pronounced on GnRH neurons than on staining of pituitary gonadotropes.
The number of ovulation sites in rabbits in Examples 47 and 48 treated with 10 mg GnRH-hecate were reduced as compared to saline controls. The mean number of ovulation sites in four saline controls equalled 12.2±5.4, with S.E.M.=2.7. The mean number of ovulation sites in the five rabbits given 10 mg of GnRH-hecate was 3.6±1.1, with S.E.M.=0.5. This difference from control was significant (p=0.025).
The “LH surge” (the level of LH at one hour post-GnRH challenge, minus the resting level before challenge) in the four controls was 61.2±16.5 ng/mL, with S.E.M.=8.3; and in the treated group was 49.6±26.1 ng/mL, with S.E.M.=12 (p=0.22). Thus there was a trend towards lower LH levels in the treated group.

[3] = system: sexually immature female rats; experiment: Thirty-three-day-old sexually immature female rats, intravenous, sacrificed 14 days after treatment, histology and immunocytochemistry (Examples 35-38); assay type: in vivo, rat; conditions: Treatment 37: 0.5 mg i.v.
Procedure: Another set of experiments was performed to study the in vivo effects of the GnRH-hecate conjugate on female rats and rabbits. The ovaries, uterus, oviducts, adrenals, spleen, thyroids, pancreas, liver, lungs, and heart were processed for histological analysis. […] The immunocytochemical staining procedures we used followed generally the procedures of M. Rahmanian et al., “Histological and immunocytochemical characterization of pituitary cell types in ponies,” Proc. 13th Soc. Equine Nutrition & Phys. Symp., pp. 348-349 (1993); M. Rahmanian et al., “Immunocytochemical localization of luteinizing hormone and follicle-stimulating hormone in the equine pituitary,” J. Anim. Sci., vol. 76, pp. 839-846 (1998); M. Rahmanian et al., “Immunocytochemical localization of prolactin and growth hormone in the equine pituitary,” Animal Sci., vol. 75, pp. 3010-3018 (1997); and P. Melrose et al., “Comparative topography of the immunoreactive alpha-melanocyte-stimulating hormone neuronal system in the brains of horses and rats,” Brain Beh. & Evol., vol. 32, pp. 226-235 (1988).
Brains were serially sectioned on a Vibrotome from the level of the diagonal band of Broca to the mammillary body. Alternate sections were consecutively divided into four to five dishes, and sections in alternate dishes were stained with cresyl violet, or were stained immunocytochemically for GnRH or the GnRH precursor, VP, OXY, or tyrosine hydroxylase (the rate-limiting enzyme in catecholamine synthesis). In addition to the staining procedures cited above, we also used the immunocytochemical staining procedures of P. Melrose et al., “Distribution and morphology of immunoreactive gonadotropin-releasing hormone (GnRH) neurons in the basal forebrain of ponies,” J. Comp. Neurol. vol. 339, pp. 269-287 (1994); and P. Melrose et al., “Topography of oxytocin and vasopressin neurons in the forebrain of Equus caballus: Further support of proposed evolutionary relationships for proopiomelanocortin, oxytocin and vasopressin neurons,” Brain, Beh. & Evol., vol. 33, pp. 193-204 (1989).
Thirty-three-day-old, sexually immature female rats were given intravenous administrations as follow:
Animals were sacrificed 14 days after treatment.

[4] = system: GnRH receptor-bearing cells in the brain (neurons) and in the pituitary (gonadotrophic cells); experiment: Summary of the in vivo studies: selectivity of the GnRH-hecate conjugate; set-up: species or system rats and rabbits
[5] = system: sexually mature, Sprague-Dawley female rats; experiment: Sexually mature Sprague-Dawley female rats, single intravenous treatment, necropsy 48 or 96 hours after treatment, H&E and PAS stain (Examples 15-22); assay type: in vivo, rat; conditions: for appearance of the pituitary glands: 1 mg i.v.
Procedure: Eight sexually mature, Sprague-Dawley female rats were randomly assigned to one of eight treatments. Each group of rats received a single treatment intravenously, as described below. Rats were sacrificed and necropsied either 48 or 96 hours after treatment. The ovaries, uterus, pancreas, liver, spleen, lungs, heart, thyroid, and adrenal glands were fixed in 10% buffered formalin; sectioned; and stained with H&E (hematoxylin and eosin) stain; except that the pituitary glands were stained with PAS (periodic acid-Schiff) stain with no counter-stain. The treatments were selected so that each animal received an equimolar amount of the compound with which it was treated.

GnRH-hecate: fusion peptide of modified GnRH bonded directly to the lytic peptide hecate, SEQ. ID NO. 3 (QHWSYGLRPGFALALKALKKALKKLKKALKKAL; ends and bridges not checked; also: GnRH part modified, modification not given here)
specific displacement of the radiolabelled peptide relative to equimolar concentrations of GnRH [1]: 123%±4%
amount of LH released in response to GnRH ([2]; 10 mg i.v. (n=5), GnRH i.m. on day 6 post-treatment): lower in the treated animals than in the controls
mean number of ovulation sites ([2]; 10 mg i.v., five rabbits, S.E.M.=0.5, saline controls 12.2±5.4, p=0.025): 3.6±1.1
LH surge (level of LH at one hour post-GnRH challenge, minus the resting level before challenge) ([2]; 10 mg i.v., S.E.M.=12, controls 61.2±16.5 ng/mL, p=0.22): 49.6 ± 26.1 ng/mL
effects on peripheral tissues ([2]; 10 mg i.v., day 7): No effects
effects on pituitary weight ([2]; 10 mg i.v., day 7): No effects
numbers of GnRH-induced ovulations ([2]; 10 mg i.v., day 7): reduced
numbers of tertiary ovarian follicles ([2]; 10 mg i.v., day 7): reduced
reduction of pituitary weights compared to the two GnRH control groups ([3]; 33-day-old female rat, 14 days after treatment): 13%
adrenocorticotropic hormone levels in the pars distalis ([3]; 14 days): reduced
cell bodies of GnRH-stained neurons in hypophysiotropic areas of the brain ([3]; 14 days): frequently deformed
histology of the C1 and C3 fields of the hippocampus ([3]; 14 days): histological damage to cells
number of alpha-MSH-stained cells in the pars distalis ([3]; 14 days): increased
pathological changes in any other tissues ([3]; 14 days): No pathological changes
reduction of the numbers of bLH-specific gonadotropes compared to the two GnRH control groups ([3]; 14 days): 92%
VP staining in the paraventricular nucleus ([3]; 14 days, may have been caused by a precipitate): increased staining of parvicellular VP neurons in the paraventricular nucleus
changes in other endocrine and non-endocrine tissues (except for the ovary) [4]: No changes
changes in pituitary cells that lacked GnRH receptors [4]: No changes
cytotoxic changes in neurons that lacked GnRH receptors [4]: No cytotoxic changes
effect on GnRH receptor-bearing cells [4]: selectively damaged GnRH receptor-bearing cells in the brain (neurons) and in the pituitary (gonadotrophic cells)
appearance of the pituitary glands ([5]; sacrificed 48 hours after injection): slightly enlarged, hyperemic, and edematous
appearance of the pituitary glands ([5]; sacrificed 96 hours after injection): slightly hyperemic, but of expected size
gross lesions in the organs ([5]; 1 mg in 100 μL saline (2.7 mM) i.v., sacrificed 48 or 96 hours after injection): No gross lesions were noted in the organs of any of the four animals, other than the pituitary

From patent US6680058B1, “Compositions and methods for contraception in or sterilization of mammals” (Board of Supervisors of Louisiana State University and …, priority 1997, dated 2004)
